Assay results: patent publication US20230235316A1, “MODEL FOR INSULIN RESISTANCE” (CHILDREN'S HOSPITAL MEDICAL CENTER, priority 2020, published 2023)
“Also recorded” adds a separate entry of the source. Each block holds one compound with its values, some of them ahead of it.

How the values were obtained:
Type in all cases: cell-based, human
HLOs = test: qPCR of gluconeogenesis and lipogenesis regulator genes in insulin-treated HLOs; conditions: HLOs insulin-starved 24 hours, insulin 100 ng/mL for 8 hours
Description: (§1) Insulin responsiveness of HLOs was analyzed using Western blotting and qPCR. The prepared HLOs were cultured under insulin starvation for 24 hours and then exposed to insulin.
To analyze insulin responsiveness of gluconeogenesis and lipogenesis regulator genes in HLOs, they were treated with insulin at 100 ng/mL for 8 hours, and then RNA was extracted for qPCR. In the insulin-treated HLOs, gluconeogenesis regulatory gene expression (FOXO1, CREB1, TFE1, PCK1) was suppressed by insulin stimulation (FIG. 4B). Conversely, lipogenesis regulatory gene expression (SREBP, FASN, ACLY, ACC) was induced by insulin stimulation (FIG. 4C).

[1] = test system: AKT phosphorylation in HLOs; test: AKT phosphorylation in HLOs after insulin (Western blot); conditions: HLOs insulin-starved 24 hours; insulin 0, 10 and 100 ng/mL for 20 minutes
Description: as §1
To analyze phosphorylation of AKT activated downstream of insulin signaling. HLOs were treated with insulin at 0 ng/mL, 10 ng/mL and 100 ng/mL for 20 minutes, and then proteins were extracted for Western blot.

sHLO = test: Insulin responsiveness in sHLO (Western blot, gene expression, PCK1, glucose production)
Description: Insulin responsiveness in the sHLO was examined. To detect insulin responsiveness, insulin starvation of sHLO and HLO controls was performed for 24 hours, followed by insulin stimulation.
Insulin signal analysis by Western blot was performed by treating with 100 nM insulin for 20 minutes. […] Insulin responsiveness of PCK1, CREB 1, and FOXO1 was not suppressed in sHLO (FIGS. 7J-K). […] Furthermore, glucose production was not inhibited after insulin stimulation in sHLO (FIG. 7L).

PCK1 reporter HLOs = test: PCK1 reporter (mScarlet fluorescence / luciferase) HLOs
From the text: To visualize and quantify HLO insulin responsiveness, iPSCs were genetically edited using the CRISPR/Cas9 system to insert a reporter construct comprising mScarlet (fluorescence) and luciferase (luminescence) genes downstream of the gluconeogenesis regulatory gene PCK1, at the 3′ end in exon 10 (FIG. 5A). FIG. 5A also depicts a schematic of the reporter function. […] When gluconeogenesis is suppressed by exposure to insulin, the expression of mScarlet and luciferase also decreases in correlation with the downregulation of PCK1. […] However, it is envisioned that other reporter constructs, such as those using alternative reporters, can be used. Furthermore, alternative insulin pathway regulatory genes are depicted in FIG. 3C to be used in lieu of PCK1.
Human iPSCs were gene edited to insert the fluorescence and luminescence reporter construct to the 3′ end of PCK1. […] These gene edited iPSCs were subsequently differentiated into HLOs. […] Subsequently, 100 ng/mL of insulin was applied for 3 hours, and fluorescence and luciferase activity were measured. […] FIGS. 6C-D depicts the detection of PCK1-luciferase luminescence as measured by in vitro imaging.
The effect of insulin concentration was tested. PCK1-luciferase HLOs were starved of insulin for 24 hours and then treated with 0 nM, 10 nM, 100 nM, or 1000 nM of insulin for 1 hour for luciferase imaging.
The effect of insulin treatment time was tested. Insulin starved HLOs were treated with 100 nM of insulin for 1, 2, or 3 hours (with no insulin control).

fatty liver HLO [2] = test: Drug screening in fatty liver HLO: inflammatory gene expression; conditions: HLO treated with fatty acids for 6 days; drug exposure 48 hours
Description: (§2) HLO were treated with fatty acids for 6 days to induce a fatty liver phenotype. Then, candidate drugs were exposed to the sHLO for 48 hours.

fatty liver HLO [3] = test: Drug screening in fatty liver HLO: fat accumulation; conditions: HLO treated with fatty acids for 6 days; drug exposure 48 hours
Description: as §2

HLO = test: Fatty acid induction of steatohepatitis phenotype in HLOs; conditions: 300 µM oleic acid for 72 hours
From the text: Fatty acid treatment induces a steatohepatitis phenotype in HLOs. […] DGAT½, which catalyzes the formation of triglycerides from diacylglycerol and acyl-CoA, was increased in sHLO relative to normal HLOs (FIG. 7D).

PCK1-mScarlet fluorescence and luciferase activity (PCK1 reporter HLOs; 100 ng/mL insulin for 3 hours after treatment with cAMP): downregulation; also recorded: decreased | luciferase activity of PCK1 (PCK1 reporter HLOs; HLOs insulin-starved 24 hours, 10 nM, 100 nM or 1000 nM insulin for 1 hour): decreased | PCK1-luciferase activity (PCK1 reporter HLOs; cAMP-treated HLOs, 100 nM insulin for 3 hours): inhibited | luciferase activity of PCK1 (PCK1 reporter HLOs; insulin-starved HLOs, 100 nM insulin for 1, 2 or 3 hours): reduced after 1 hour of treatment
Compound: insulin
gluconeogenesis regulatory gene expression (FOXO1, CREB1, TFE1, PCK1) (HLOs): suppression; also recorded: suppressed | lipogenesis regulatory gene expression (SREBP, FASN, ACLY, ACC) (HLOs): induction; also recorded: induced | AKT phosphorylation [1]: induces AKT phosphorylation | glucose production (sHLO; sHLO after insulin stimulation): not affected; also recorded: not inhibited | insulin response of PCK1 and other gluconeogenesis genes (sHLO; sHLO insulin-starved 24 hours, then insulin stimulation): not responsive | phosphorylation of AKT (sHLO; sHLO insulin-starved 24 hours, 100 nM insulin for 20 minutes, Western blot): inhibited in sHLO

Compound: CN(C)C(=N)N=C(N)N [metformin]
inflammatory gene expression (TNFa, NFKB1, NFKB2) / inflammatory response (fatty liver HLO [2]): limited improvement | fat accumulation (fatty liver HLO [3]): improvement

Compound: CCCCCCCC/C=C\CCCCCCCC(=O)O [oleic acid]
fat accumulation (HLO): induces fat accumulation
